*1 amine or outer side, *2 acyl side, *3 side chain or, on linkers, in order; H or OH if unused. Where a SMILES comes first, the peptide text is derived from it. Side-chain parts run from the residue outwards. [ ]: non-standard residue; d: D form. The star is where a group is joined. γGlu = O=C(O)[C@H](CCC(=O)[*:2])N[*:1]; Palmitoyl = CCCCCCCCCCCCCCCC(=O)*; Cha = N[C@@H](CC1CCCCC1)C(=O)O; Aib = CC(C)(N)C(=O)O; βAla = NCCC(=O)O
Molecular target: T1, human GLP-1 receptor (hGLP-1 R) (Homo sapiens, UniProt P43220)
T1 construct: expressed in transfected cells; host or cells: HEK-293
T1 sequence (P43220 24-463): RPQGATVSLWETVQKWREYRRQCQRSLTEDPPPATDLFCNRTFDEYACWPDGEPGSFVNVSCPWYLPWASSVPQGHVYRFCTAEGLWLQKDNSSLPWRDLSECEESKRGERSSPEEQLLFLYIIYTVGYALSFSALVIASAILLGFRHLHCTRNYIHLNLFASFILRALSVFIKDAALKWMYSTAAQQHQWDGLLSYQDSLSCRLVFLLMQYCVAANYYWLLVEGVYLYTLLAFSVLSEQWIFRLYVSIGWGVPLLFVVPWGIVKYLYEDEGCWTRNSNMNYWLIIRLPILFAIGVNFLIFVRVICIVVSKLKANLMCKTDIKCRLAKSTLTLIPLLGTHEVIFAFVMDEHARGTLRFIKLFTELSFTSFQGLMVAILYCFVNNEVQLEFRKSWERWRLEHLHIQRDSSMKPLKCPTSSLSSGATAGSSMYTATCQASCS
Test: cAMP response (HTRF) of HEK-293 cells stably expressing human GLP-1 receptor
Type: cell-based
Settings: HEK-293 cells expressing human GLP-1 receptor, cAMP formation
Description: cAMP content of cells was determined using a kit from Cisbio Corp. (cat. no. 62AM4PEC) based on HTRF (Homogenous Time Resolved Fluorescence). For preparation, cells were split into T175 culture flasks and grown overnight to near confluency in medium (DMEM/10% FBS). Medium was then removed and cells washed with PBS lacking calcium and magnesium, followed by proteinase treatment with accutase (Sigma-Aldrich cat. no. A6964). Detached cells were washed and resuspended in assay buffer (1×HBSS; 20 mM HEPES, 0.1% BSA, 2 mM IBMX) and cellular density determined. […] For measurement, 25 μl of test compound in assay buffer was added to the wells, followed by incubation for 30 minutes at room temperature.

CCCCCCCCCCCCCCCC(=O)N[C@@H](CCC(=O)NCCCC[C@H](NC(=O)[C@H](CO)NC(=O)[C@@H]1CCCN1C(=O)[C@@H]1CCCN1C(=O)[C@@H]1CCCN1C(=O)[C@H](C)NC(=O)CNC(=O)[C@H](CO)NC(=O)[C@H](CO)NC(=O)[C@@H]1CCCN1C(=O)CNC(=O)CNC(=O)[C@H](C)NC(=O)[C@H](CCCCN)NC(=O)[C@H](CC(C)C)NC(=O)[C@H](Cc1c[nH]c2ccccc12)NC(=O)[C@H](CCC(=O)O)NC(=O)[C@@H](NC(=O)[C@H](Cc1ccccc1)NC(=O)[C@H](CC(=O)O)NC(=O)[C@H](CCC(N)=O)NC(=O)[C@H](C)NC(=O)[C@H](CCCNC(=N)N)NC(=O)[C@H](CCCNC(=N)N)NC(=O)[C@H](CO)NC(=O)[C@H](CCC(=O)O)NC(=O)[C@H](CC1CCCCC1)NC(=O)[C@H](CCC(N)=O)NC(=O)[C@H](CCCCN)NC(=O)[C@H](CO)NC(=O)[C@H](CC(C)C)NC(=O)[C@H](CC(=O)O)NC(=O)[C@H](CO)NC(=O)[C@@H](NC(=O)[C@H](Cc1ccccc1)NC(=O)[C@@H](NC(=O)CNC(=O)[C@H](CCC(N)=O)NC(=O)[C@@H](CO)NC(=O)[C@@H](N)Cc1c[nH]cn1)[C@@H](C)O)[C@@H](C)O)[C@@H](C)CC)C(N)=O)C(=O)O [(95)] (H-H[dS]QGTFTSDLSKQ[Cha]ESRRAQDFIEWLKAGGPSSGAPPPSK([γGlu-Palmitoyl])-NH2)
EC50: 6.7 pM

CCCCCCCCCCCCCCCC(=O)NCCC(=O)NCCC(=O)NCCCC[C@H](NC(=O)[C@H](CO)NC(=O)[C@@H]1CCCN1C(=O)[C@@H]1CCCN1C(=O)[C@@H]1CCCN1C(=O)[C@H](C)NC(=O)CNC(=O)[C@H](CO)NC(=O)[C@H](CO)NC(=O)[C@@H]1CCCN1C(=O)CNC(=O)CNC(=O)[C@H](CO)NC(=O)[C@H](CCCCN)NC(=O)[C@H](CC(C)C)NC(=O)[C@H](Cc1c[nH]c2ccccc12)NC(=O)[C@H](CCC(=O)O)NC(=O)[C@@H](NC(=O)[C@H](Cc1ccccc1)NC(=O)[C@H](CC(=O)O)NC(=O)[C@H](CCC(N)=O)NC(=O)[C@H](C)NC(=O)[C@H](CCCNC(=N)N)NC(=O)[C@H](CCCNC(=N)N)NC(=O)[C@H](CO)NC(=O)[C@H](CCC(=O)O)NC(=O)[C@H](CCSC)NC(=O)[C@H](CCC(N)=O)NC(=O)[C@H](CCCCN)NC(=O)[C@H](CO)NC(=O)[C@H](CC(C)C)NC(=O)[C@H](CC(=O)O)NC(=O)[C@H](CO)NC(=O)[C@@H](NC(=O)[C@H](Cc1ccccc1)NC(=O)[C@@H](NC(=O)CNC(=O)[C@H](CCC(N)=O)NC(=O)[C@@H](CO)NC(=O)[C@@H](N)Cc1c[nH]cn1)[C@@H](C)O)[C@@H](C)O)[C@@H](C)CC)C(N)=O [(98)] (H-H[dS]QGTFTSDLSKQMESRRAQDFIEWLKSGGPSSGAPPPSK([βAla-βAla-Palmitoyl])-NH2)
EC50: 5.1 pM

CCCCCCCCCCCCCCCC(=O)N[C@@H](CCC(=O)NCCCC[C@H](NC(=O)[C@H](CO)NC(=O)[C@@H]1CCCN1C(=O)[C@@H]1CCCN1C(=O)[C@@H]1CCCN1C(=O)[C@H](C)NC(=O)CNC(=O)[C@H](CO)NC(=O)[C@H](CO)NC(=O)[C@@H]1CCCN1C(=O)CNC(=O)CNC(=O)[C@H](CO)NC(=O)[C@H](CCCCN)NC(=O)[C@H](CC(C)C)NC(=O)[C@H](Cc1c[nH]c2ccccc12)NC(=O)[C@H](CCC(=O)O)NC(=O)[C@@H](NC(=O)[C@H](Cc1ccccc1)NC(=O)[C@H](CC(=O)O)NC(=O)[C@H](CCC(N)=O)NC(=O)[C@H](C)NC(=O)[C@H](C)NC(=O)[C@H](CCCNC(=N)N)NC(=O)[C@H](CO)NC(=O)[C@H](CCC(=O)O)NC(=O)[C@H](CCSC)NC(=O)[C@H](CCC(N)=O)NC(=O)[C@H](CCCCN)NC(=O)[C@H](CO)NC(=O)[C@H](CC(C)C)NC(=O)[C@H](CC(=O)O)NC(=O)[C@H](CO)NC(=O)[C@@H](NC(=O)[C@H](Cc1ccccc1)NC(=O)[C@@H](NC(=O)CNC(=O)[C@H](CCC(N)=O)NC(=O)[C@@H](CO)NC(=O)[C@@H](N)Cc1c[nH]cn1)[C@@H](C)O)[C@@H](C)O)[C@@H](C)CC)C(N)=O)C(=O)O [(103)] (H-H[dS]QGTFTSDLSKQMESRAAQDFIEWLKSGGPSSGAPPPSK([γGlu-Palmitoyl])-NH2)
EC50: 3.7 pM

CCCCCCCCCCCCCCCC(=O)N[C@@H](CCC(=O)NCCCC[C@H](NC(=O)[C@H](CO)NC(=O)[C@@H]1CCCN1C(=O)[C@@H]1CCCN1C(=O)[C@@H]1CCCN1C(=O)[C@H](C)NC(=O)CNC(=O)[C@H](CO)NC(=O)[C@H](CO)NC(=O)[C@@H]1CCCN1C(=O)CNC(=O)CNC(=O)[C@H](C)NC(=O)[C@H](CCCCN)NC(=O)[C@H](CC(C)C)NC(=O)[C@H](Cc1c[nH]c2ccccc12)NC(=O)[C@H](CCC(=O)O)NC(=O)[C@@H](NC(=O)[C@H](Cc1ccccc1)NC(=O)[C@H](CC(=O)O)NC(=O)[C@H](CCCCN)NC(=O)[C@H](C)NC(=O)[C@H](C)NC(=O)[C@H](CCC(=O)O)NC(=O)[C@H](CCC(=O)O)NC(=O)[C@H](CCC(=O)O)NC(=O)[C@H](CCSC)NC(=O)[C@H](CCC(N)=O)NC(=O)[C@H](CCCCN)NC(=O)[C@H](CO)NC(=O)[C@H](CC(C)C)NC(=O)[C@H](CC(=O)O)NC(=O)[C@H](CO)NC(=O)[C@@H](NC(=O)[C@H](Cc1ccccc1)NC(=O)[C@@H](NC(=O)CNC(=O)[C@H](CCC(N)=O)NC(=O)[C@@H](CO)NC(=O)[C@@H](N)Cc1c[nH]cn1)[C@@H](C)O)[C@@H](C)O)[C@@H](C)CC)C(N)=O)C(=O)O [(110)] (H-H[dS]QGTFTSDLSKQMEEEAAKDFIEWLKAGGPSSGAPPPSK([γGlu-Palmitoyl])-NH2)
EC50: 2.9 pM

CCCCCCCCCCCCCCCC(=O)N[C@@H](CCC(=O)NCCCC[C@H](NC(=O)[C@H](CO)NC(=O)[C@@H]1CCCN1C(=O)[C@@H]1CCCN1C(=O)[C@@H]1CCCN1C(=O)[C@H](C)NC(=O)CNC(=O)[C@H](CO)NC(=O)[C@H](CO)NC(=O)[C@@H]1CCCN1C(=O)CNC(=O)CNC(=O)[C@H](C)NC(=O)[C@H](CCCCN)NC(=O)[C@H](CC(C)C)NC(=O)[C@H](Cc1c[nH]c2ccccc12)NC(=O)[C@H](CCC(=O)O)NC(=O)[C@@H](NC(=O)[C@H](Cc1ccccc1)NC(=O)[C@H](CC(=O)O)NC(=O)[C@H](CCC(N)=O)NC(=O)[C@H](C)NC(=O)[C@H](C)NC(=O)C(C)(C)NC(=O)[C@H](CO)NC(=O)[C@H](CCC(=O)O)NC(=O)[C@H](CCSC)NC(=O)[C@H](CCC(N)=O)NC(=O)[C@H](CCCCN)NC(=O)[C@H](CO)NC(=O)[C@H](CC(C)C)NC(=O)[C@H](CC(=O)O)NC(=O)[C@H](CO)NC(=O)[C@@H](NC(=O)[C@H](Cc1ccccc1)NC(=O)[C@@H](NC(=O)CNC(=O)[C@H](CCC(N)=O)NC(=O)[C@@H](CO)NC(=O)[C@@H](N)Cc1c[nH]cn1)[C@@H](C)O)[C@@H](C)O)[C@@H](C)CC)C(N)=O)C(=O)O [(111)] (H-H[dS]QGTFTSDLSKQMES[Aib]AAQDFIEWLKAGGPSSGAPPPSK([γGlu-Palmitoyl])-NH2)
EC50: 4.1 pM
